Assay: Serum amikacin after single oral administration by gavage
Type: in vivo, male Harlan Sprague Dawley albino rats
Conditions: rat, 20 mg amikacin per rat
Procedure: The lipid-only, 1:1 lipid/polymer and the polymer-only pharmaceutical compositions with amikacin encapsulated therein, or unencapsulated amikacin as a solution at pH 8 was administered orally by gavage to 300 g male Harlan Sprague Dawley albino rats. The number of animals per group was six. The dose was 20 mg per rat and the volume was 2 mL. Serum was collected via venipuncture (saphenous vein) from unanesthetized animals at 15, 45, 90 min., 3, 8, 24, and 48 hours. The specimens were kept at −40° C. until analysis.
The concentration of amikacin in serum was determined using a competitive particle concentration fluorescence immunoassay. Polystyrene beads (Idexx Research Product Division, Memphis, Tenn.) were first coated with anti-amikacin antibody (The Binding Site, San Diego, Calif.). The beads were incubated with a combination of fluorescent-labeled amikacin (The Binding Site) and serum containing amikacin which compete for the anti-amikacin antibody sites on the beads. The amount of fluorescent-labeled amikacin bound to the beads was measured by a fluorescence concentration analyzer (Idexx Research Product Division) which is inversely proportional to the amikacin concentration in serum.

peak level of the concentration of amikacin in circulation: 1.82 ± 0.73 µg/mL
time at which peak circulatory levels were reached: 45 min
SMILES: NCC[C@H](O)C(=O)N[C@@H]1C[C@H](N)[C@@H](O[C@H]2O[C@H](CN)[C@@H](O)[C@H](O)[C@H]2O)[C@H](O)[C@H]1O[C@H]1O[C@H](CO)[C@@H](O)[C@H](N)[C@H]1O [unencapsulated amikacin, amikacin]

From patent US6793938B2, “Biodegradable compositions for the controlled release of encapsulated substances” (Skye Pharma, Inc., priority 1998, dated 2004)
